US4529602A, “Method for treatment or prophylaxis of gastro-intestinal disease” (priority 1981, dated 1985)
Counter-ions that a name gives are not always drawn.

Tests used:
[1] = tested on: pepsin secretion; assay: Preventive effect on pepsin secretion in pylorus-ligated rats; format: in vivo, Male SD-strain rats; settings: 100 mg/kg oral, 5 h after administration
Description: (§1) Preventive effect on acid and pepsin secretions
(§2) Male SD-strain rats (6 to 7 weeks old) were starved for 48 hours, and then the pylori were ligated. Immediately after ligation, a solution or suspension of a test compound in distilled water was administered orally into the stomachs in an amount of 0.2 ml per 100 g of body weight (Dose: 100 mg/kg). Five hours after said administration of the test compound, the rats were sacrificed and the stomachs were removed. The gastric contents were centrifuged at 2,500 rpm for 10 minutes and the gastric juice was collected as the supernatant. The concentration of pepsin in the gastric juice was determined by Anson's method (c.f., J. Gen. Physiol., 22, pp. 77-89 (1938)) using hemoglobin as the substrate, and the preventive effect of the test compound on the pepsin secretion was estimated in terms of "decrease in pepsin concentration" according to the following formula: [formula]

[2] = tested on: gastric acid secretion; assay: Preventive effect on gastric acid secretion in pylorus-ligated rats; format: in vivo, Male SD-strain rats; settings: 100 mg/kg oral, 5 h after administration
Description: as §1, §2
On the other hand, the concentration of free acid in the gastric juice was determined by titrating said gastric juice to pH 7.0 with 0.1N NaOH, and the preventive effect of the test compound on the gastric acid secretion was estimated in terms of "the decrease in acidity of gastric juice" according to the following formula: [formula] (Results)

[3] = tested on: aspirin-induced ulcers; assay: Effect on aspirin-induced ulcers; format: in vivo, Male Donryu-strain rats; settings: aspirin 200 mg/kg
Description: Male Donryu-strain rats (8 to 9 weeks old) were starved overnight, and a solution or suspension of a test compound in distilled water was administered orally into the stomachs in an amount of one ml per 100 g of body weight. Half an hour later, a suspension of aspirin in 0.25% CMC solution was administered orally to the rats in an amount of 0.5 ml per 100 g of body weight (Dose: 200 mg/kg). Four hours after the administration of aspirin, the rats were sacrificed and the stomachs were removed and inflated by injecting 10 ml of 1% formalin solution to fix the inner layers of the gastric walls. The stomach was then incised along the greater curvature and the lengths of the lesions were measured and summated to give ulcer index (in mm) for each animal. The preventive effect of the test compound on aspirin-induced ulcers were calculated by the following formula: [formula] (Results)

CC(C)c1cc2c(cc1S(=O)(=O)O)[C@@]1(C)CCC[C@@](C)(C(=O)O)[C@@H]1CC2 [L-Arginine salt, sulfodehydroabietic acid L-arginine salt hemihydrate]
Decrease (%) in pepsin concentration ([1]; hemihydrate): 77%

CC(C)c1cc2c(cc1S(=O)(=O)O)[C@@]1(C)CCC[C@@](C)(C(=O)O)[C@@H]1CC2 [2 (2-Dimethylaminoethyl)amine salt, sulfodehydroabietic acid di(2-dimethylaminoethylamine)salt monohydrate]
Decrease (%) in acidity of gastric juice ([2]; monohydrate): 31%
Decrease (%) in pepsin concentration ([1]; monohydrate): 92%

CC(C)c1cc2c(cc1S(=O)(=O)O)[C@@]1(C)CCC[C@@](C)(C(=O)O)[C@@H]1CC2 [Hexamethylenediamine salt, sulfodehydroabietic acid hexamethylenediamine salt hemihydrate]
Decrease (%) in acidity of gastric juice ([2]; hemihydrate): 32%
Decrease (%) in pepsin concentration ([1]; hemihydrate): 94%

CC(C)c1cc2c(cc1S(=O)(=O)O)[C@@]1(C)CCC[C@@](C)(C(=O)O)[C@@H]1CC2 [L-Asparagine salt, sulfodehydroabietic acid L-asparagine salt monohydrate]
Decrease (%) in acidity of gastric juice ([2]; monohydrate): 38%
Decrease (%) in pepsin concentration ([1]; monohydrate): 90%

CC(C)c1cc2c(cc1S(=O)(=O)O)[C@@]1(C)CCC[C@@](C)(C(=O)O)[C@@H]1CC2 [2 Isopropylamine salt, sulfodehydroabietic acid di(isopropylamine)salt]
Decrease (%) in acidity of gastric juice [2]: 40%
Decrease (%) in pepsin concentration [1]: 95%

CC(C)c1cc2c(cc1S(=O)(=O)O)[C@@]1(C)CCC[C@@](C)(C(=O)O)[C@@H]1CC2 [L-Lysine salt, sulfodehydroabietic acid L-lysine salt monohydrate]
Decrease (%) in pepsin concentration ([1]; monohydrate): 94%

CC(C)c1cc2c(cc1S(=O)(=O)O)[C@@]1(C)CCC[C@@](C)(C(=O)O)[C@@H]1CC2 [2 Morpholine salt, sulfodehydroabietic acid dimorpholine salt hemihydrate]
Decrease (%) in pepsin concentration ([1]; hemihydrate): 92%

CC(C)c1cc2c(cc1S(=O)(=O)O)[C@@]1(C)CCC[C@@](C)(C(=O)O)[C@@H]1CC2 [2 Cyclohexylamine salt, sulfodehydroabietic acid di(cyclohexylamine)salt]
Decrease (%) in pepsin concentration [1]: 71%

CC(C)c1cc2c(cc1S(=O)(=O)O)[C@@]1(C)CCC[C@@](C)(C(=O)O)[C@@H]1CC2 [2 (2-Methoxyethyl)amine salt, sulfodehydroabietic acid di(2-methoxyethylamine)salt]
Decrease (%) in pepsin concentration [1]: 98%

CC(C)c1cc2c(cc1S(=O)(=O)O)[C@@]1(C)CCC[C@@](C)(C(=O)O)[C@@H]1CC2 [Tetramethylenediamine salt, sulfodehydroabietic acid tetramethylenediamine salt hemihydrate]
Decrease (%) in acidity of gastric juice ([2]; hemihydrate): 36%
Decrease (%) in pepsin concentration ([1]; hemihydrate): 84%

sulfodehydroabietic acid di(aluminum dihydroxide)salt dihydrate [2 Aluminum dihydroxide salt]
Decrease (%) in pepsin concentration [1]: 69%

CC(C)c1cc2c(cc1S(=O)(=O)O)[C@@]1(C)CCC[C@@](C)(C(=O)O)[C@@H]1CC2 [2/3 Aluminum salt, sulfodehydroabietic acid 2/3 aluminum ssalt 7/3 hydrate]
Decrease (%) in pepsin concentration ([1]; hydrate): 95%

CC(C)c1cc2c(cc1S(=O)(=O)O)[C@@]1(C)CCC[C@@](C)(C(=O)O)[C@@H]1CC2 [L-Glutamine salt, sulfodehydroabietic acid L-glutamine salt hemihydrate]
Decrease (%) in acidity of gastric juice ([2]; hemihydrate): 39%
Decrease (%) in pepsin concentration ([1]; hemihydrate): 90%

sulfodehydroabietic acid (aluminum monohydroxide) [Aluminum monohydroxide salt]
Decrease (%) in pepsin concentration [1]: 91%

CC(C)c1cc2c(cc1S(=O)(=O)O)[C@@]1(C)CCC[C@@](C)(C(=O)O)[C@@H]1CC2 [Ethylenediamine salt, sulfodehydroabietic acid ethylenediamine salt hemihydrate]
Decrease (%) in pepsin concentration ([1]; hemihydrate): 94%

CC(C)c1cc2c(cc1S(=O)(=O)O)[C@@]1(C)CCC[C@@](C)(C(=O)O)[C@@H]1CC2 [Carnosine salt, sulfodehydroabietic acic carnosine salt monohydrate]
Decrease (%) in pepsin concentration ([1]; monohydrate): 72%
Preventive effect on aspirin-induced ulcers ([3]; p.o. 2 m mol./kg (1,248 mg/kg)): 33%

CC(C)c1cc2c(cc1S(=O)(=O)O)[C@@]1(C)CCC[C@@](C)(C(=O)O)[C@@H]1CC2 [L-S--Methylmethionine salt, sulfodehydroabietic acid S-methyl-L-methionine salt dihydrate]
Decrease (%) in pepsin concentration ([1]; dihydrate): 84%
Preventive effect on aspirin-induced ulcers ([3]; p.o. 2 m mol./kg (1,086 mg/kg)): 85%
